Assays:
[1] = target: T1, Cbl-b (Homo sapiens (Human), UniProt Q13191); experiment: Cbl-b displacement assay (Cbl-b inhibition assay), TR-FRET probe displacement, Biological Example 1; type: binding; details: 0.5 nM Cbl-b final concentration (High); read-out: Cbl-b activity IC50 (High)
In short: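 N-terminally Avitagged, biotinylated truncated Cbl-b (0.5 nM "High" or 0.125 nM "Low", final) pre-incubated 1 h at room temperature with compound (1% DMSO) in HEPES pH 7.5 buffer. Then 150 nM BODIPY FL probe (~EC40) plus 2 nM streptavidin-terbium for 1 h; TR-FRET read at 520/620 nm.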

[2] = test system: TC-1 cells; experiment: Compound 8 with HPV16 vaccine in TC-1 syngeneic mouse model, Biological Example 16; type: in vivo; details: TC-1 tumor-bearing mice
Description: Mice were implanted with 50,000 TC-1 cells/mouse subcutaneously into the right flank (at Day Zero (D0)). Thirteen days later (D13), when tumors measured approximately 50-100 mm^3, mice from appropriate groups (10 mice per group) were injected with HPV16 vaccine (s.c., total 2 doses, at D13 and Day 20 (D20)). […] Mice were euthanized when tumor exceeded 1500-2000 mm^3, according to IACUC guidelines. Survival was compared using GraphPad Prism using log-rank (Mantel-Cox) test. **=p<0.005 of treatment vs. Vehicle+Vaccine control group at Day 61.
TC-1 cells were derived by stable transfection of mouse lung epithelial cells with human papillomavirus strain 16 (HPV16) early proteins 6 and 7 (E6 and E7) and activated h-ras oncogene. Cells were obtained from Dr. T-C Wu (Johns Hopkins University). (Lin K Y, Guarnieri F G, Staveley-O'Carroll K F, Levitsky H I, August J T, Pardoll D M, et al. Treatment of established tumors with a novel vaccine that enhances major histocompatibility class II presentation of tumor antigen. Cancer Res 1996; 56:21-6).
The HPV16 vaccine was prepared as follows: The CTL epitope from HPV16 E749-57 (9 amino acid (aa) peptide, […], 100 μg/mouse, SEQ ID NO: 2) was mixed with synthetic T helper epitope PADRE (13 aa peptide, aK-Cha-[…]a, SEQ ID NO: 3, where “a” is D alanine and Cha is L-cyclohexylalanine, 20 ug/mouse) and with QuilA adjuvant (20 ug/mouse).

[3] = test system: primary human total T-cells; experiment: Primary human total T-cell activation: CD25 surface staining, Biological Example 2; type: cell-based; details: 48 hours, fold change over baseline; for fold induction at 1 µM: inhibitor 1 μM
[4] = test system: primary human total T-cells; experiment: Primary human total T-cell activation: CD25 surface staining, Biological Example 9; type: cell-based; details: 48 hours, fold change over baseline; for fold induction at 1 µM: inhibitor 1 μM
[5] = test system: primary human total T-cells; experiment: Primary human total T-cell activation: IL-2 secretion, Biological Example 13; type: cell-based; details: 48 hours, fold change over baseline; for fold induction at 1 µM: inhibitor 1 μM
[6] = target: T1, Cbl-b; experiment: Cbl-b displacement assay (Cbl-b inhibition assay), Biological Example 8; type: binding; details: 0.125 nM Cbl-b final concentration (Low); Table 8-1; read-out: Cbl-b IC50 (Low)
In short: (§1)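 Biotinylated Avitag-Cbl-b (residues 36-427) at 0.5 nM ("High") or 0.125 nM ("Low") final was preincubated 1 h at room temperature with compound (1% DMSO) in 20 mM HEPES pH 7.5, 150 mM NaCl, 0.01% Triton X-100, 0.01% BSA, 0.5 mM TCEP. Then 150 nM BODIPY FL inhibitor probe (~EC40) plus 2 nM streptavidin-terbium, 1 h; TR-FRET 520/620 read, IC50 derived.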

[7] = target: T1, Cbl-b; experiment: Cbl-b displacement assay (Cbl-b inhibition assay), Biological Example 12; type: binding; details: 0.125 nM Cbl-b final concentration (Low); Table 12-1; read-out: Cbl-b IC50 (Low)
In short: as §1

[8] = test system: primary human total T-cells; experiment: Primary human total T-cell activation: IL-2 secretion, Biological Example 9; type: cell-based; details: 48 hours, fold change over baseline; for fold induction at 1 µM: inhibitor 1 μM
[9] = anti-CD3/anti-CD28 co-stimulation, inhibitor 0.3 μM, Table 9-1
[10] = anti-CD3 alone, inhibitor 3 μM, Table 9-1

T1 sequence (Q13191 36-427): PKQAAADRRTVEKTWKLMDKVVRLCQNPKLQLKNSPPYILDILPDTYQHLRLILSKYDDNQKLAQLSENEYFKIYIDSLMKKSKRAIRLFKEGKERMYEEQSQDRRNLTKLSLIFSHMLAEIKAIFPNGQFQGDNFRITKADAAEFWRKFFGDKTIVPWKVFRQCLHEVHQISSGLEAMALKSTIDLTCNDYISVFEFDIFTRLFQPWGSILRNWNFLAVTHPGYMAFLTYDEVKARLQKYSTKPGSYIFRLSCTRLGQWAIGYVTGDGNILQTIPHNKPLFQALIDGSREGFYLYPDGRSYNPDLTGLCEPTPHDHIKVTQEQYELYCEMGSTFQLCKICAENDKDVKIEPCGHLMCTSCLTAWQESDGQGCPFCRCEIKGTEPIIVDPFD

C[C@@H]1CN(Cc2cc3c(c(C(F)(F)F)c2)CN(c2cccc(C4(Cc5nncn5C)COC4)c2)C3=O)CCC1(F)F [Compound 8, (R)-6-((4,4-difluoro-3-methylpiperidin-1-yl)methyl)-2-(3-(3-((4-methyl-4H-1,2,4-triazol-3-yl)methyl)oxetan-3-yl)phenyl)-4-(trifluoromethyl)isoindolin-1-one]
IC50 [1]: 5.1 to 100 nM
tumor growth ([2]; Compound 8 orally D13 to D35, HPV16 vaccine s.c. D13 and D20): significant slowdown of tumor progression
survival ([2]; Compound 8 orally D13 to D35 with HPV16 vaccine s.c. D13 and D20, vs. Vehicle+Vaccine): prolonged survival
fold induction at 0.3 µM ([3]; anti-CD3/anti-CD28 co-stimulation, inhibitor 0.3 μM): 1.25 to 1.39
fold induction at 1 µM ([3]; anti-CD3/anti-CD28 co-stimulation, read-out: CD25 staining CD3/CD28 1 μM): 1.25 to 1.39
fold induction at 1 µM ([3]; anti-CD3 alone, read-out: CD25 staining CD3 1 μM): > 1.14
fold induction at 3 µM ([3]; anti-CD3 alone, inhibitor 3 μM): > 1.14
fold induction at 0.3 µM [4, 9]: > 1.39
fold induction at 1 µM ([4]; anti-CD3/anti-CD28 co-stimulation, Table 9-1, read-out: CD25 staining CD3/CD28 1 μM): > 1.39
fold induction at 1 µM ([4]; anti-CD3 alone, Table 9-1, read-out: CD25 staining CD3 1 μM): > 1.14
fold induction at 3 µM [4, 10]: > 1.14
fold induction at 0.3 µM ([5]; anti-CD3/anti-CD28 co-stimulation, inhibitor 0.3 μM, Table 13-1): > 15
fold induction at 1 µM ([5]; anti-CD3/anti-CD28 co-stimulation, Table 13-1, read-out: IL-2 secretion CD3/CD28 1 μM): > 15
fold induction at 1 µM ([5]; anti-CD3 alone, Table 13-1, read-out: IL-2 secretion CD3 1 μM): > 0.66
fold induction at 3 µM ([5]; anti-CD3 alone, inhibitor 3 μM, Table 13-1): > 0.66
IC50 [6]: < 1 nM
IC50 [7]: < 1 nM
fold induction at 0.3 µM [8, 9]: > 15
fold induction at 1 µM ([8]; anti-CD3/anti-CD28 co-stimulation, Table 9-1, read-out: IL-2 secretion CD3/CD28 1 μM): > 15
fold induction at 1 µM ([8]; anti-CD3 alone, Table 9-1, read-out: IL-2 secretion CD3 1 μM): > 0.66
fold induction at 3 µM [8, 10]: > 0.66

From patent US11464802B2, “3-substituted piperidine compounds for Cbl-b inhibition, and use thereof” (Nurix Therapeutics, Inc., priority 2019, dated 2022)
